Data as given in ChEMBL document CHEMBL6092206, “Discovery and Characterization of BAY-184: A New Potent and Selective Acylsulfonamide-Benzofuran In Vivo-Active KAT6AB Inhibitor” (J Med Chem, 2024).
Active and inactive are the calls of the source. The rule behind the calls is not given here.

Columns and labels:
[1] = Half life in male Wistar rat at 0.5 mg/kg, iv measured upto 24 hrs by LC-MS/S analysis; assay type: ADME, organism-based; conditions: in vivo
CAMA-1 = assay: Antiproliferative activity against human CAMA-1 cells assessed as inhibition of cell growth incubated for 6 days by alamar blue staining based assay relative to control; assay type: functional; conditions: time 6 day
HCC1428 = assay: Antiproliferative activity against human HCC1428 cells assessed as inhibition of cell growth incubated for 6 days by alamar blue staining based assay relative to control; assay type: functional; conditions: time 6 day
[2] = Clearance in male Wistar rat at 0.5 mg/kg, iv or 1 mg/kg, po measured upto 24 hrs by LC-MS/S analysis; assay type: ADME, organism-based; conditions: in vivo
[3] = Tmax in male Wistar rat at 1 mg/kg, po measured upto 24 hrs by LC-MS/S analysis; assay type: ADME, organism-based; conditions: in vivo
[4] = Plasma protein binding in mouse assessed as unbound fraction equilibrium dialysis based LC-MS/MS analysis; assay type: ADME, cell-free
[5] = Metabolic stability in dog hepatocyte assessed as maximum bioavailability of the drug measured for 2 to 90 mins by LC-MS/MS analysis; assay type: ADME, Canis lupus familiaris; conditions: hepatocytes, time 2-90 min, read-out: Fmax
[6] = Stability in rat plasma assessed as parent compound remaining after 4 hrs; assay type: ADME, cell-free
[7] = molecular target: T1, Histone acetyltransferase KAT6A (Homo sapiens, UniProt Q92794); assay: Inhibition of KAT6A in human ZR-75-1 cells assessed as reduction in H3K23ac level at 1 uM incubated at 10 to 2880 mins by Western blot analysis; assay type: cell-based; conditions: time 10-2880 min
[8] = Metabolic stability in human liver microsome assessed as maximum bioavailability of the drug measured for 2 to 60 mins by LC-MS/MS analysis; assay type: ADME; conditions: liver microsomes, time 2-60 min, read-out: Fmax
MDA-MB-361 = assay: Antiproliferative activity against human MDA-MB-361 cells assessed as inhibition of cell growth incubated for 6 days by alamar blue staining based assay relative to control; assay type: functional; conditions: time 6 day
[9] = Antiproliferative activity against human KPL-1 cells assessed as inhibition of cell growth incubated for 6 days by alamar blue staining based assay relative to control; assay type: functional; conditions: time 6 day
[10] = Mutagenicity in Salmonella typhimurium TA1535 by Ames test; assay type: toxicity; conditions: salmonella enterica subsp. enterica serovar typhimurium
[11] = Metabolic stability in mouse hepatocyte assessed as clearance measured for 2 to 90 mins by LC-MS/MS analysis; assay type: ADME, cell-based; conditions: hepatocytes, time 2-90 min
[12] = Metabolic stability in human hepatocyte assessed as clearance measured for 2 to 90 mins by LC-MS/MS analysis; assay type: ADME, cell-based; conditions: hepatocytes, time 2-90 min
[13] = Antiproliferative activity against human HCC1500 cells assessed as inhibition of cell growth incubated for 6 days by alamar blue staining based assay relative to control; assay type: functional; conditions: time 6 day
[14] = Mutagenicity in Salmonella typhimurium TA100 by Ames test; assay type: toxicity; conditions: salmonella enterica subsp. enterica serovar typhimurium
[15] = Toxicity in female estradiol-primed NMRI mouse assessed as tolerability at 50 to 10 mg/kg, po administered twice daily measured at 2 to 3 days; assay type: organism-based; conditions: in vivo, dose lower 50 mg/kg, time lower 2 day, dose upper 10 mg/kg, time upper 3 day
HaCaT = assay: Cytotoxicity against human HaCaT cells incubated for 72 hrs; assay type: toxicity, cell-based
MCF7 = assay: Antiproliferative activity against human MCF7 cells assessed as inhibition of cell growth incubated for 6 days by alamar blue staining based assay relative to control; assay type: functional; conditions: time 6 day
[16] = molecular target: Histone acetyltransferase p300 (Homo sapiens, UniProt Q09472); assay: Inhibition of GST-tagged human recombinant p300 (965 to 1810 residues) expressed in Sf9 insect cells using H3-derived peptide as substrate incubated for 30 mins in presence of AcCoA by TR-FRET assay
[17] = Metabolic stability in dog hepatocyte assessed as clearance measured for 2 to 90 mins by LC-MS/MS analysis; assay type: ADME, cell-based, Canis lupus familiaris; conditions: hepatocytes, time 2-90 min
HCC1806 = assay: Antiproliferative activity against human HCC1806 cells assessed as inhibition of cell growth incubated for 6 days by alamar blue staining based assay relative to control; assay type: functional; conditions: time 6 day
[18] = molecular target: Histone acetyltransferase KAT5 (Homo sapiens, UniProt Q92993); assay: Inhibition of full length N-terminal GST-tagged human recombinant KAT5 expressed in Sf9 insect cells using H4-derived peptide as substrate incubated for 30 mins in presence of AcCoA by TR-FRET assay
[19] = Oral bioavailability in male Wistar rat at 1 mg/kg measured upto 24 hrs by LC-MS/S analysis; assay type: ADME, organism-based; conditions: in vivo
[20] = Metabolic stability in human liver microsome assessed as clearance measured for 2 to 60 mins by LC-MS/MS analysis; assay type: ADME; conditions: microsomes, time 2-60 min
[21] = Metabolic stability in dog liver microsome assessed as clearance measured for 2 to 60 mins by LC-MS/MS analysis; assay type: ADME, Canis lupus familiaris; conditions: microsomes, time 2-60 min
ZR-75-1 = assay: Antitumor activity against human ZR-75-1 cells xenografted in female estradiol-primed NMRI mouse assessed as reduction in H3K23 acetylation level in tumor at 100 mg/kg, po administered twice daily measured after 24 hrs by immunohistochemical analysis; assay type: functional, organism-based
[22] = Metabolic stability in rat liver microsome assessed as maximum bioavailability of the drug measured for 2 to 60 mins by LC-MS/MS analysis; assay type: ADME; conditions: liver microsomes, time 2-60 min, read-out: Fmax
[23] = molecular target: T2, Histone acetyltransferase KAT8 (Homo sapiens, UniProt Q9H7Z6); assay: Inhibition of full length N-terminal GST-tagged human recombinant KAT8 (174 to 449 residues) using H4-derived peptide as substrate incubated for 60 mins in presence of AcCoA by TR-FRET assay; design: species or system Sf9
T2 sequence (Q9H7Z6 whole entry): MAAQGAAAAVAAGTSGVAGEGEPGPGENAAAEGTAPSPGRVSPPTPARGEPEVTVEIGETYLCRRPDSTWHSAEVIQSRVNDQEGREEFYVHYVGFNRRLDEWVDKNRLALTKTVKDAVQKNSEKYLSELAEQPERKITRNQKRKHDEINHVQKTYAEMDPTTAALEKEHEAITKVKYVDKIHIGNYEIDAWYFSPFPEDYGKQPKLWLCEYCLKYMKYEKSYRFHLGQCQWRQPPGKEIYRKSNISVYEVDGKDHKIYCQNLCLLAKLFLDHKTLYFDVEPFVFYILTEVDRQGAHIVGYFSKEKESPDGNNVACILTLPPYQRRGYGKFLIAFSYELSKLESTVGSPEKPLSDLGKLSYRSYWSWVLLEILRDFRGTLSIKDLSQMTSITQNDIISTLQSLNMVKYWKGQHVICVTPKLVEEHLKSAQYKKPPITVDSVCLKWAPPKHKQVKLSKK

[24] = Mutagenicity in Escherichia coli WP2 uvrA by Ames test; assay type: toxicity
[25] = molecular target: T1, Histone acetyltransferase KAT6A; assay: Inhibition of KAT6A in human ZR-75-1 cells assessed as reduction in H3K23ac level at 1 uM measured after 144 hrs by Western blot analysis; assay type: cell-based
[26] = Metabolic stability in mouse hepatocyte assessed as maximum bioavailability of the drug measured for 2 to 90 mins by LC-MS/MS analysis; assay type: ADME; conditions: hepatocytes, time 2-90 min, read-out: Fmax
[27] = Half life in mouse at 0.5 mg/kg, iv; assay type: ADME, organism-based; conditions: in vivo
BT-549 = assay: Antiproliferative activity against human BT-549 cells assessed as inhibition of cell growth incubated for 6 days by alamar blue staining based assay relative to control; assay type: functional; conditions: time 6 day
[28] = AUC in male Wistar rat at 1 mg/kg, po measured upto 24 hrs by LC-MS/S analysis; assay type: ADME, organism-based; conditions: in vivo

T1 sequence (Q92794 whole entry, looked up): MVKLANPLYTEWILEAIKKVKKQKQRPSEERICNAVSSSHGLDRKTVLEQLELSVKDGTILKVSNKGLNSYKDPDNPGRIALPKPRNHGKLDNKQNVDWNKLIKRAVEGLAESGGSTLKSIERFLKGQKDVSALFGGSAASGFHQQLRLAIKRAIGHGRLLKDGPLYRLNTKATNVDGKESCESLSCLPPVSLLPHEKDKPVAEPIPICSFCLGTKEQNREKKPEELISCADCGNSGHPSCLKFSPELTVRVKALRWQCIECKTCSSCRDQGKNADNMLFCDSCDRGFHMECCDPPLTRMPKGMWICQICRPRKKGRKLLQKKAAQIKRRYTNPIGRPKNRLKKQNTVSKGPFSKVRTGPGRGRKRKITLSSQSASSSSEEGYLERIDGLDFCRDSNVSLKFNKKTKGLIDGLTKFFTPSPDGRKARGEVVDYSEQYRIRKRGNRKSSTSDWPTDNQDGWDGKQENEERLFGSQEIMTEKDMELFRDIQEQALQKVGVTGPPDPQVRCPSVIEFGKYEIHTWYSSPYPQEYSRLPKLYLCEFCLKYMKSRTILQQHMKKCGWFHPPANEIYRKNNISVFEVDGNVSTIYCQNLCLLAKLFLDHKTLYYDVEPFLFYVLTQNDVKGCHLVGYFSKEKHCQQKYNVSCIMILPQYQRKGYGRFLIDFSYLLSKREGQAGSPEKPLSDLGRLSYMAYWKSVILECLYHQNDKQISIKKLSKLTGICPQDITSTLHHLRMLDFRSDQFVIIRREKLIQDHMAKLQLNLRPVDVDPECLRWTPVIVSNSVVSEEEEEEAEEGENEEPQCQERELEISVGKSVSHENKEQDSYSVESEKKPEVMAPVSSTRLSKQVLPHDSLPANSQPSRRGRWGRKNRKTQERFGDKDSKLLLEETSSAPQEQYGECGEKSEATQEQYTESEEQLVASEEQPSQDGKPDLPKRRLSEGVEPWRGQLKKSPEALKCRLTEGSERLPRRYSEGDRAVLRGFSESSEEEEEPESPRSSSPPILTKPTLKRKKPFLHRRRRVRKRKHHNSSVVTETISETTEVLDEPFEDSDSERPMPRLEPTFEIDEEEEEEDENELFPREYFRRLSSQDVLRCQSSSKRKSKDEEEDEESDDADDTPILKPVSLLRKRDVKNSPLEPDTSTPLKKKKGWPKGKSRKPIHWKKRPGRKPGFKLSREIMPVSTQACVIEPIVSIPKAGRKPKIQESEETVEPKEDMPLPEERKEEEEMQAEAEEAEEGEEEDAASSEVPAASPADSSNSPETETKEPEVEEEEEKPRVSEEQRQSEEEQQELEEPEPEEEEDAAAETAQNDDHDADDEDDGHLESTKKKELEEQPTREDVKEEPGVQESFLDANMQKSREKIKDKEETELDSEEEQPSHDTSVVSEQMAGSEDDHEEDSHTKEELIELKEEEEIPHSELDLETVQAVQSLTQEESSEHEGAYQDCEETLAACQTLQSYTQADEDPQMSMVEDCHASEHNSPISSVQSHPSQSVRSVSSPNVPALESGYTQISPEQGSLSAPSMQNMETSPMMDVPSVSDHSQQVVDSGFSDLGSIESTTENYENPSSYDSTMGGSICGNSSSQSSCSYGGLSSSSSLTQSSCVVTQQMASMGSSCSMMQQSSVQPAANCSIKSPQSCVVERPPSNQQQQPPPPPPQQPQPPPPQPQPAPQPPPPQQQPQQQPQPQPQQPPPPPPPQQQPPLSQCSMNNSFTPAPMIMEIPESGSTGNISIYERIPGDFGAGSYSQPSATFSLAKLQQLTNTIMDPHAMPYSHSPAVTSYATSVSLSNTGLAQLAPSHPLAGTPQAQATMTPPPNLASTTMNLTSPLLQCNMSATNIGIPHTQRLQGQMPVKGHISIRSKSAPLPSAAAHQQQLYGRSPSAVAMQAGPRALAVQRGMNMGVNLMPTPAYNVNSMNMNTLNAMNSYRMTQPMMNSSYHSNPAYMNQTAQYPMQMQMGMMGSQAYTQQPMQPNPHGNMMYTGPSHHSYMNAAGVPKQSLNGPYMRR
Sequence of Histone acetyltransferase KAT5 (Q92993 whole entry): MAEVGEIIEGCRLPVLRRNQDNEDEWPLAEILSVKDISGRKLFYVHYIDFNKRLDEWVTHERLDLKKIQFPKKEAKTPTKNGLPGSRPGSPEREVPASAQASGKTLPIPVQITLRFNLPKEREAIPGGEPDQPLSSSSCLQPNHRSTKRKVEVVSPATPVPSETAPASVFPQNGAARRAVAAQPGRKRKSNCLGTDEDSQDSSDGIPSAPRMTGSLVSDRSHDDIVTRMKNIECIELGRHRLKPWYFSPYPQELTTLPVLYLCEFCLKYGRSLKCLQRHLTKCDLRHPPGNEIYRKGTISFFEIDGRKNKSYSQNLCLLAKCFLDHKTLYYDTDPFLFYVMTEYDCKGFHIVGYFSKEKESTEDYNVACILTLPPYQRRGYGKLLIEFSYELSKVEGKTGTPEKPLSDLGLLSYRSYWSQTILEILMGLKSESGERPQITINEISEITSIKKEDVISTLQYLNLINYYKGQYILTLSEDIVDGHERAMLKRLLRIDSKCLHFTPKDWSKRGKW
Sequence of Histone acetyltransferase p300 (Q09472 whole entry, the tested form may be a part): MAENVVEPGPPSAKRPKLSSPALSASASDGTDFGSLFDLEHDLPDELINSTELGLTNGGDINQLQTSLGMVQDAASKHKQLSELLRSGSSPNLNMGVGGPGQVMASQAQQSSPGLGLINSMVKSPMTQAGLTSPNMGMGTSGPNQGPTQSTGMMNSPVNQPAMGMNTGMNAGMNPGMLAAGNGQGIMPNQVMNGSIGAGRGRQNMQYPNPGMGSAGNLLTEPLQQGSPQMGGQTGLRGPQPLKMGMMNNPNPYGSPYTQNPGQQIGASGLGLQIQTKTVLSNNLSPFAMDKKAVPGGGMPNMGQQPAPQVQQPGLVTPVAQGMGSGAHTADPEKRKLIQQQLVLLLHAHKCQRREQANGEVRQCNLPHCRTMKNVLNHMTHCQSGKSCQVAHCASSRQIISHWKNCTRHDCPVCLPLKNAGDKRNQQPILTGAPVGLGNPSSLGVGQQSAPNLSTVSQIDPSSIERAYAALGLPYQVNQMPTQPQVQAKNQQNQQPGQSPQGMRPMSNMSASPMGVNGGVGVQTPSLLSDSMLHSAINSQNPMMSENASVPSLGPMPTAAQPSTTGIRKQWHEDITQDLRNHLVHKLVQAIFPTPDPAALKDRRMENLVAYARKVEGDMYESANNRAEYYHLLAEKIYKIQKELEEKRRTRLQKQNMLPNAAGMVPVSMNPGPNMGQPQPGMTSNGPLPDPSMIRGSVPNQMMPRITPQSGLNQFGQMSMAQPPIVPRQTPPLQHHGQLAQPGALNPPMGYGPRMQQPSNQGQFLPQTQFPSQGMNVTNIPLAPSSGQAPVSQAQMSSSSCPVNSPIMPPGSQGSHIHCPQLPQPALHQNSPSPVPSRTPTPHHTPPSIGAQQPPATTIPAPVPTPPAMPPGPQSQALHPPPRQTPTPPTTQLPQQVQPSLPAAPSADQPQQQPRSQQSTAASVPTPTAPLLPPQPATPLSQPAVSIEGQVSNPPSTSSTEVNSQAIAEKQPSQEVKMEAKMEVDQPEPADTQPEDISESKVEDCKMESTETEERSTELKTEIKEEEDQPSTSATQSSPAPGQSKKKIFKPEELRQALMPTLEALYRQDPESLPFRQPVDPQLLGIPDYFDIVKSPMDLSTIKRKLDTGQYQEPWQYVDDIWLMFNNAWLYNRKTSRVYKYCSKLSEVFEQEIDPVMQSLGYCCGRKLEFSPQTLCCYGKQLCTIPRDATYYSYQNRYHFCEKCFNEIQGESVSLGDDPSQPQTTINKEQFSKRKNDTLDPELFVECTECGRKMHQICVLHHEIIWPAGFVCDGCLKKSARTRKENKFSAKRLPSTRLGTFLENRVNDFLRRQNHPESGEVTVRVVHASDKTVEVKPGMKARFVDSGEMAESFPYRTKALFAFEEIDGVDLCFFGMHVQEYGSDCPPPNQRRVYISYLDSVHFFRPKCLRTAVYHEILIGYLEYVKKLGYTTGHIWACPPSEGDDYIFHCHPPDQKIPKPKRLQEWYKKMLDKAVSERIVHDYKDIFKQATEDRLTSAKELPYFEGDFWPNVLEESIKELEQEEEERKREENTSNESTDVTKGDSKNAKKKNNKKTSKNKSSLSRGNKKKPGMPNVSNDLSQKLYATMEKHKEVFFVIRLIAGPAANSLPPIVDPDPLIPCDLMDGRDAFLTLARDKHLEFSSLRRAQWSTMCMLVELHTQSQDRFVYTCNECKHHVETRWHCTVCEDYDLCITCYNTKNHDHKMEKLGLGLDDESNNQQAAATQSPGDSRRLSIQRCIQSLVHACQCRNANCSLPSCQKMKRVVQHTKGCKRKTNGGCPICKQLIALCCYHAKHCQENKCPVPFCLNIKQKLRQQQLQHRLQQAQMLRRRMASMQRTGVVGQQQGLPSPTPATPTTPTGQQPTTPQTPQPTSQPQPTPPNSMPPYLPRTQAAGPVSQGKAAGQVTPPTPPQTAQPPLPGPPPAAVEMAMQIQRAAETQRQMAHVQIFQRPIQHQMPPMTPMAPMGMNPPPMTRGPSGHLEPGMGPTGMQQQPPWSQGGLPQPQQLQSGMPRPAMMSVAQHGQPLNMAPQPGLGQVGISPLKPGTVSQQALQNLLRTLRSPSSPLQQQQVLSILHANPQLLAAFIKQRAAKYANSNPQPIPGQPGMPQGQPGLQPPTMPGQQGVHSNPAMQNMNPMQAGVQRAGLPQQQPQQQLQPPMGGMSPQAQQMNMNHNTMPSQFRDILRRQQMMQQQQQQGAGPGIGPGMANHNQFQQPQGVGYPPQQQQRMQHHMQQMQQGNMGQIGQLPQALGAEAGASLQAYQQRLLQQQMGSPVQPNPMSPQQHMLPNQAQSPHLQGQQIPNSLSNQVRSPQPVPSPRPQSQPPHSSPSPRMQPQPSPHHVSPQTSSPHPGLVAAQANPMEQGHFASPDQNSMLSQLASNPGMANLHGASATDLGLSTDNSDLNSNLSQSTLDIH

t1/2 [1]: 0.94 h | clearance [2]: 5.67 mL/min/kg | Tmax [3]: 0.5 h | Fu [4]: 0.31% | Fh [5]: 53% | Stability [6]: Stable | inhibition [7]: Active | Fh [8]: 41% | CLH [11]: 60 mL/min/kg | CLH [12]: 16.5 mL/min/kg | IC50 [16]: > 10 µM | CLH [17]: 16.5 mL/min/kg | IC50 [18]: 14.3 µM | bioavailability [19]: 60% | CLH [20]: 12.8 mL/min/kg | CLH [21]: 6.83 mL/min/kg | Fh [22]: 28% | IC50 [23]: > 10 µM | inhibition [25]: inactive | Fh [26]: 33% | half-life [27]: 1.3 h | AUC [28]: 3.3 kg·h/L
SMILES: CN(C)c1ccc2cc(C(=O)NS(=O)(=O)c3ccccc3-c3ccccc3)oc2c1
inhibition (INH) (CAMA-1): 68% | inhibition (INH) (HCC1428): 51% | inhibition (INH) (MDA-MB-361): 22% | inhibition (INH) [9]: 30% | Activity [10]: Non-toxic | inhibition (INH) [13]: 49% | Activity [14]: Non-toxic | Activity [15]: Non-toxic | Activity (HaCaT): Non-toxic | inhibition (INH) (MCF7): 66% | inhibition (INH) (HCC1806): 0% | Activity (ZR-75-1): Active | Activity [24]: Non-toxic | inhibition (INH) (BT-549): 0%
